What was measured:
[1] = test system: pain induced by carrageenan, C57BL/6J mice; test: Test Example 5: Suppression effect on pain induced by carrageenan (von Frey escape score); type: in vivo, mouse; conditions: mean ± SE, n=8
Procedure: This experiment was carried out with reference to Science Translational Medicine 6, 251ra118 (2014). Animals used were 7-week-old male C57BL/6J mice (The Jackson Laboratory Japan, Inc.). To induce mechanical allodynia to a sole part, carrageenan was subcutaneously administered to the sole of the left hind limb of each mouse. The escape response against mechanical stimulation 180 minutes after the induction was measured by using a von Frey filament with bending force (0.16 grams) to the sole surface of the left hind limb in the ascending direction. The mouse was stimulated in the vertical direction for 6 seconds until the filament bent, and the escape response of the mouse was rated with three-grade scoring (0: no response or startle response (displacing the foot without ascending), 1: ascending the foot, 2: licking or shaking the foot). Stimulation was performed 10 times, and the total value of 10 scores (escape score) was calculated.
The compound (Example 3) was dissolved in DMSO/PEG400 (volume ratio: 1:1), and 2, 6, or 20 mg/kg (no compound for a Vehicle group) of the compound was subcutaneously administered to the back of the neck three times in total at the same dose: 15 minutes before injection of carrageenan, 30 minutes after injection of carrageenan, and 150 minutes after injection of carrageenan, each at a dose of 5 mL/kg in liquid volume. A 1.5% carrageenan solution was prepared with physiological saline, and subcutaneously administered to the sole of the left hind limb at 7 μL/body.
In significance test, multiple comparison by the Steel's test was carried out for comparison between the Vehicle group and Example 3 group, where the significance level was set to 5%, and calculation was separately performed for lower than 5% (p<0.05) and for lower than 1% (p<0.01). The commercially available statistical program SAS SYSTEM (SAS Institute Japan Ltd.) was used for the significance test.

[2] = Test Example 2: Metabolic stability with mouse hepatic microsomes; type: in vitro ADME; conditions: after 30 minutes, 37° C., NADPH; further: tested at 0.99 µM
Procedure: Metabolic stability in mouse hepatic microsomes was evaluated with the following method.
• (1) Mouse hepatic microsomes: 20 mg/mL • (2) Test compound: 1.1 mM DMSO solution • (3) Potassium phosphate buffer solution: 66.7 mM (pH 7.4) • (4) NADPH solution: 10 mM in potassium phosphate buffer solution • (5) Quenching solution: 0.5% formic acid-acetonitrile solution with warfarin as internal standard substance
Into a propylene tube, 971.5 μL of the potassium phosphate buffer solution and 27.5 μL of the mouse hepatic microsomes were put, and suspended. Thereto, 1 μL of a test compound was added, and 180 μL was taken from this mixture and transferred into another tube. The mixture was preincubated at 37° C. for 5 minutes, and 20 μL of the NADPH solution (for the case with an incubation time of 30 minutes) or 20 μL of the potassium phosphate buffer solution (for the case with an incubation time of 0 minutes) was then added thereto. After incubation, 200 μL of the quenching solution was added to terminate the reaction. Subsequently, centrifugation was performed at 3220×g for 20 minutes, and the concentration of the unchanged form of the test compound in 200 μL of the supernatant was measured with LC-MS/MS. On the basis of the peak area obtained for the unchanged form, the residual rate (%) of the unchanged form was calculated as that for the case with an incubation time of 0 minutes was assumed as 100%.

[3] = biological target: T1, human recombinant ALDH2 enzyme (Homo sapiens, UniProt P05091); test: Test Example 1-1: ALDH2 activation effect (acetaldehyde oxidation rate, PicoProbe kit); type: biochemical; conditions: ALDH2 2 μg/mL, 180 min measurement
T1 construct: purchased Abcam ab87415
T1 sequence (P05091 18-517): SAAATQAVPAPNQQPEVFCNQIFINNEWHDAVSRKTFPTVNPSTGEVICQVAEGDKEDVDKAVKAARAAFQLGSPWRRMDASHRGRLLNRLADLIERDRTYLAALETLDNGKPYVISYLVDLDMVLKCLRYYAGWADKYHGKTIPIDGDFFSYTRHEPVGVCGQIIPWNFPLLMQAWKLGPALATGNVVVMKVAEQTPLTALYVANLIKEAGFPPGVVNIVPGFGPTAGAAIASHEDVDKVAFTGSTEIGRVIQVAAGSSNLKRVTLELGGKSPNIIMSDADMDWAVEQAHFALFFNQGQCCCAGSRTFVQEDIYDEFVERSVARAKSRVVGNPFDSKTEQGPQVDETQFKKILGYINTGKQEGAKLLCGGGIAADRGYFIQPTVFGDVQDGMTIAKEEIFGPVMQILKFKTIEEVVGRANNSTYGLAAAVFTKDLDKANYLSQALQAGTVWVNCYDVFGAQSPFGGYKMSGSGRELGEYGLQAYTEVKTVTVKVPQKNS
Procedure: The activation effect of each test compound on the acetaldehyde oxidation rate of ALDH2 was measured with the following method. A test was conducted by using a commercially available PicoProbe™ Aldehyde dehydrogenase Activity Assay Kit (manufactured by BioVision Inc.) with reference to an instruction attached to the product under the following conditions. To each well of a 384-well plate, the following (1) to (3) were sequentially added with a pipette: • (1) 10 μL of solution obtained by dissolving and diluting a human recombinant ALDH2 enzyme (manufactured by Abcam, product number: ab87415) with ALDH assay Buffer (final concentration: 2 μg/mL); • (2) 10 μL of 30 μM or 90 μM test compound solution (with 3% DMSO) prepared by using ALDH assay Buffer; and • (3) 10 μL of Reaction mix composed with ratio of […] of ALDH assay Buffer, 0.6 μL of PicoProbe, 0.3 μL of Substrate Mix, and 1.5 μL of Acetaldehyde.
Before addition of (3), incubation was performed at room temperature for 5 minutes. After addition of (3), fluorescence intensity was measured at room temperature every 2.5 minutes over a period of 180 minutes by using an EnSight (manufactured by PerkinElmer Inc.) to determine the oxidation rate. Wavelengths of 535 nm and 587 nm were used for fluorescence intensities of excitation and emission, respectively.

[4] = Test Example 3: Metabolic stability with human hepatic microsomes; type: in vitro ADME; conditions: human hepatic microsomes 0.1 mg protein/mL, 0.1 μmol/L test compound, after 30 minutes, 37° C.
Procedure: For the compounds of Examples 1 to 9, which had been confirmed to have stability in the mouse hepatic microsome test, metabolic stability with human hepatic microsomes was measured. The specific method is as follows. • (1) Fifty microliter-portions were taken from 0.2 μmol/L test compound diluted with β-NADPH solution. • (2) Fifty microliters of 0.2 mg protein/mL human hepatic microsome solution was added to each (except for a sample with a reaction time of 0 minutes). • (3) Incubation was performed with shaking at 37° C. for 30 minutes (concentration in reaction sample: 0.1 μmol/L test compound, 0.1 mg protein/mL human hepatic microsome) • (4) After incubation, 400 μL of methanol was added to terminate the reaction. • (5) To the sample with a reaction time of 0 minutes, 50 μL of 0.2 mg protein/mL hepatic microsome solution was added. • (6) Each of the samples from (4) and (5) was left to stand at −20° C. for 30 minutes or longer, and then centrifuged at 4° C. and 3,000 rpm for approximately 10 minutes. • (7) The supernatant was subjected to measurement with LC/MS/MS, and, on the basis of the peak area obtained for the unchanged form, the residual rate (%) of the unchanged form was calculated as that for the case with an incubation time of 0 minutes was assumed as 100%.

With `COc1ncc(CNC(=O)c2cc(-c3ncccc3CO)ccc2F)cc1F` [Example 3, 2-Fluoro-N-((5-fluoro-6-methoxypyridin-3-yl)methyl)-5-(3-(hydroxymethyl)pyridin-2-yl)benzamide] the Pain-related total score ([1]; 2 mg/kg s.c. three times, 180 min after induction with carrageenan, p<0.01 vs Vehicle (9.4 ± 0.5)) was 5.3 ± 0.3, the Pain-related total score ([1]; 2 mg/kg s.c. three times, Pre (before induction)) was 1.8 ± 0.5 and the Pain-related total score ([1]; 6 mg/kg s.c. three times, 180 min after induction with carrageenan, p<0.01 vs Vehicle (9.4 ± 0.5)) was 4.6 ± 0.3. For the same molecule, the Pain-related total score ([1]; 6 mg/kg s.c. three times, Pre (before induction)) was 1.8 ± 0.5, the Pain-related total score ([1]; 20 mg/kg s.c. three times, 180 min after induction with carrageenan, p<0.01 vs Vehicle (9.4 ± 0.5)) was 3.9 ± 0.3 and the Pain-related total score ([1]; 20 mg/kg s.c. three times, Pre (before induction)) was 1.8 ± 0.4. The “Residual rate (%) of unchanged form” value [2] was 93%, the “acetaldehyde oxidation rate (no test compound = 100%)” value ([3]; test compound 10 μM) was 188% and the “acetaldehyde oxidation rate (no test compound = 100%)” value ([3]; test compound 30 μM) was 226%. For the same molecule, the “Residual rate (%) of unchanged form” value [4] was 93%.

Source: patent US20250084036A1, “COMPOUND, ALDEHYDE DEHYDROGENASE 2 ACTIVATOR, PHARMACEUTICAL COMPOSITION, AND THERAPEUTIC AND/OR PROPHYLACTIC DRUG” (Alchemedicine, Inc., priority 2022, published 2025)
